In the NIST ThermoML archive (doi:10.1021/je700145e):

Details: Liquid

CCCCCCCCCCO [decan-1-ol]
Details	mass density [kg/m3]
313.12 K, 1025 kPa	816.79
313.12 K, 2002 kPa	817.46
313.12 K, 2995 kPa	817.98
313.12 K, 4013 kPa	818.58
313.12 K, 5004 kPa	819.21
313.12 K, 5994 kPa	819.86
313.12 K, 7003 kPa	820.47
313.12 K, 7997 kPa	821.19
313.12 K, 9000 kPa	821.73
313.12 K, 9994 kPa	822.38
313.12 K, 10995 kPa	823.02
313.12 K, 11995 kPa	823.67
313.12 K, 12997 kPa	824.2
313.12 K, 13996 kPa	824.82
313.12 K, 14998 kPa	825.42
313.12 K, 15990 kPa	826.01
313.12 K, 16995 kPa	826.61
313.12 K, 17986 kPa	827.14
313.12 K, 18992 kPa	827.76
313.12 K, 19993 kPa	828.31
313.12 K, 20999 kPa	828.88
313.12 K, 21509 kPa	829.19
323.09 K, 1002 kPa	809.87
323.09 K, 2011 kPa	810.59
323.09 K, 3019 kPa	811.21
323.09 K, 4014 kPa	811.83
323.09 K, 5006 kPa	812.47
323.09 K, 6012 kPa	813.18
323.09 K, 7002 kPa	813.8
323.09 K, 8003 kPa	814.42
323.09 K, 9008 kPa	815.1
323.09 K, 10006 kPa	815.7
323.09 K, 11000 kPa	816.38
323.09 K, 12002 kPa	816.97
323.09 K, 13002 kPa	817.64
323.09 K, 14000 kPa	818.21
323.09 K, 15017 kPa	818.84
323.09 K, 16003 kPa	819.4
323.09 K, 17015 kPa	820.02
323.09 K, 18006 kPa	820.61
323.09 K, 19007 kPa	821.24
323.09 K, 20007 kPa	821.84
323.09 K, 21002 kPa	822.41
323.09 K, 22014 kPa	823.01
333.04 K, 1046 kPa	802.82
333.04 K, 2018 kPa	803.5
333.04 K, 3008 kPa	804.21
333.04 K, 4012 kPa	804.88
333.04 K, 5059 kPa	805.62
333.04 K, 6016 kPa	806.29
333.04 K, 7022 kPa	807
333.04 K, 8014 kPa	807.64
333.04 K, 9015 kPa	808.34
333.04 K, 10015 kPa	808.97
333.04 K, 11019 kPa	809.64
333.04 K, 12007 kPa	810.31
333.04 K, 13019 kPa	810.96
333.04 K, 14019 kPa	811.6
333.04 K, 15014 kPa	812.24
333.04 K, 16021 kPa	812.88
333.04 K, 17026 kPa	813.5
333.04 K, 18023 kPa	814.11
333.04 K, 19018 kPa	814.72
333.04 K, 20025 kPa	815.35
333.04 K, 21020 kPa	815.94
333.04 K, 22032 kPa	816.58
342.98 K, 1058 kPa	795.63
342.98 K, 2045 kPa	796.4
342.98 K, 3022 kPa	797.12
342.98 K, 4035 kPa	797.9
342.98 K, 5028 kPa	798.63
342.98 K, 6030 kPa	799.37
342.98 K, 7023 kPa	800.07
342.98 K, 8028 kPa	800.78
342.98 K, 9062 kPa	801.51
342.98 K, 10035 kPa	802.22
342.98 K, 11029 kPa	802.92
342.98 K, 12064 kPa	803.64
342.98 K, 13023 kPa	804.31
342.98 K, 14042 kPa	805
342.98 K, 15022 kPa	805.66
342.98 K, 16022 kPa	806.36
342.98 K, 17021 kPa	807
342.98 K, 18034 kPa	807.7
342.98 K, 19025 kPa	808.35
342.98 K, 20038 kPa	808.98
342.98 K, 21018 kPa	809.62
342.98 K, 22035 kPa	810.28
352.86 K, 1069 kPa	788.44
352.86 K, 2043 kPa	789.24
352.86 K, 3040 kPa	790.04
352.86 K, 4048 kPa	790.78
352.86 K, 5038 kPa	791.59
352.86 K, 6043 kPa	792.34
352.86 K, 7038 kPa	793.09
352.86 K, 8039 kPa	793.84
352.86 K, 9040 kPa	794.57
352.86 K, 10038 kPa	795.32
352.86 K, 11032 kPa	796.04
352.86 K, 12032 kPa	796.74
352.86 K, 13040 kPa	797.47
352.86 K, 14046 kPa	798.18
352.86 K, 15043 kPa	798.89
352.86 K, 16037 kPa	799.59
352.86 K, 17040 kPa	800.26
352.86 K, 18046 kPa	800.95
352.86 K, 19040 kPa	801.63
352.86 K, 20064 kPa	802.32
352.86 K, 21048 kPa	802.96
352.86 K, 22049 kPa	803.62
362.89 K, 1077 kPa	781.02
362.89 K, 2027 kPa	781.83
362.89 K, 3089 kPa	782.69
362.89 K, 4047 kPa	783.49
362.89 K, 5061 kPa	784.29
362.89 K, 6060 kPa	785.12
362.89 K, 7041 kPa	785.91
362.89 K, 8049 kPa	786.7
362.89 K, 9049 kPa	787.47
362.89 K, 10052 kPa	788.25
362.89 K, 11045 kPa	788.99
362.89 K, 12044 kPa	789.75
362.89 K, 13054 kPa	790.54
362.89 K, 14053 kPa	791.25
362.89 K, 15052 kPa	792
362.89 K, 16056 kPa	792.77
362.89 K, 17063 kPa	793.47
362.89 K, 18062 kPa	794.2
362.89 K, 19062 kPa	794.91
362.89 K, 20068 kPa	795.64
362.89 K, 21072 kPa	796.35
362.89 K, 22063 kPa	797.03
